According to patent US8143226B2, “Tyrosine kinase receptor antagonists and methods of treatment for breast cancer” (The Regents of the University of California, priority 2005, dated 2012):

Key:
[1] = target: EGF receptor (Homo sapiens, UniProt P00533); conditions: Seufferlein et al. 2002; cited from earlier work
[2] = target: T1, IGF-1R (Mus musculus, UniProt Q60751); test: IGF-1R autophosphorylation in excised MCNeuA tumors (ELISA); type: in vivo; conditions: 37.5 mg/kg i.p. three times a week, 16 hours after final dose, vs vehicle
T1 construct: from tissue; host or cells: MCNeuA tumours excised from neuTg mice
T1 sequence (Q60751 31-1373): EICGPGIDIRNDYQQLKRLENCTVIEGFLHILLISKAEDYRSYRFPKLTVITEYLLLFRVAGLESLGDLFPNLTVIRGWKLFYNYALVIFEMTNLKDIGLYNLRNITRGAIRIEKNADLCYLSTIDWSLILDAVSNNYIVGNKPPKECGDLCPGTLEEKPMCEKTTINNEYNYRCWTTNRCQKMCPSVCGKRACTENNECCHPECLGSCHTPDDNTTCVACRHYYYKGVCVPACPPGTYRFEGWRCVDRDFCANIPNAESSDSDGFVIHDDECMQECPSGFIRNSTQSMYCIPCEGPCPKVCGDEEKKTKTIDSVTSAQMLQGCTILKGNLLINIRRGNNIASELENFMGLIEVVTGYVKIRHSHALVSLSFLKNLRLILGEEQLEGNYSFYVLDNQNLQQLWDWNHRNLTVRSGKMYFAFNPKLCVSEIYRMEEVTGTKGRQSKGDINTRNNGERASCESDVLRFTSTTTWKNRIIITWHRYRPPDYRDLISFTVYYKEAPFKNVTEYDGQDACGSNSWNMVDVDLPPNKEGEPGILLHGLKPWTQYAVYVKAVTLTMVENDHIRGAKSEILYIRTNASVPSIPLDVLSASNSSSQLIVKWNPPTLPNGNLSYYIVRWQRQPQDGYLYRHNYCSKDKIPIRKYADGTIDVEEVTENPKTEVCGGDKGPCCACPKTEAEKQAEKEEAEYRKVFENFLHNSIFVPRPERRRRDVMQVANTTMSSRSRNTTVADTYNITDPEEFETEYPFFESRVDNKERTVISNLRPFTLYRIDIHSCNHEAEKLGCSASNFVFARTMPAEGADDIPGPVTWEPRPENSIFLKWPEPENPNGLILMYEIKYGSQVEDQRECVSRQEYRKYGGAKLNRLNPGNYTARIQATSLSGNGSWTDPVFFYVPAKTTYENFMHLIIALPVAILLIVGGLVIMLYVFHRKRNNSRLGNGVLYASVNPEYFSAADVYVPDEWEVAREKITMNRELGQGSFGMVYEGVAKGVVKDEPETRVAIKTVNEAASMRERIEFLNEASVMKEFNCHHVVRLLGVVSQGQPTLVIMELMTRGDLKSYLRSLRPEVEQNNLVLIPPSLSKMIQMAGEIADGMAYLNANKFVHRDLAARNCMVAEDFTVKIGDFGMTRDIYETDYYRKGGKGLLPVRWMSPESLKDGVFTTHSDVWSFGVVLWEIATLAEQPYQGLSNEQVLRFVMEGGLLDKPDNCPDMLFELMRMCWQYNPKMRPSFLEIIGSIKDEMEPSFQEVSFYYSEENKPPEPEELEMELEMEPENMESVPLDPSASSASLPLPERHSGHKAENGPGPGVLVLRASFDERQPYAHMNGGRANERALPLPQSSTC
Procedure: Tumors were homogenized in 50 mM HEPES, pH 7.6, 150 mM NaCl, 1 mM PMSF, 2 μM leupeptin, 2 μM Pepstatin A, and 2 mM Na3VO4, and solubilized by the addition of 1% Triton x-100. Soluble lysates were prepared as described for cell culture studies. Tyrosine phosphorylation of IGF-1R was determined by ELISA as described for MCF-7 cells. Phosphorylation of HER2/neu was determined by western blot employing the phospho-specific antibody as in the cell culture studies. The degree of phosphorylation for each receptor was normalized to total receptor protein content in the tumor samples as determined by western blotting with antibodies against the human IGF-1R and the rodent HER2/neu.

[3] = tested on: Akt/BAD pathway; test: IGF-1 stimulated Akt and BAD phosphorylation in MCF-7 cells (western blot); type: cell-based, human; conditions: 1 nM IGF-1
Procedure: Inhibition of IGF-1-stimulated activation of serine kinase Akt was determined in the lysates prepared for the IGF-1R phosphotyrosine ELISA described above. 12 μg of sample was subjected to SDS-PAGE, transfer-ed to a nitrocellulose membrane, and […] quantified by blotting overnight at 4 C with a phospho-specific antibody to Akt (ser473) diluted 1:1000 in Superblock. Next, blots were washed with 3 times with TBST, then incubated with HRP conjugated sheep anti-rabbit IgG diluted 1:10,000 in Superblock for 90 minutes at room temperature. Phosphorylation of the apoptotic protein BAD was determined in the same manner by blotting with a phospho-specific antibody to BAD (ser136) (1:1,000).

[4] = target: T2, rodent HER2/neu receptor (Rattus norvegicus, UniProt P06494); test: Autophosphorylation of isolated HER2/neu (western blot); type: biochemical; conditions: preincubation 20 minutes prior to 10 μM ATP
T2 construct: made in house; host or cells: MCNeuA mouse mammary carcinoma cells (MMTV/neu transgenic), partially purified by wheat germ agglutinin chromatography
T2 sequence (P06494 23-1257): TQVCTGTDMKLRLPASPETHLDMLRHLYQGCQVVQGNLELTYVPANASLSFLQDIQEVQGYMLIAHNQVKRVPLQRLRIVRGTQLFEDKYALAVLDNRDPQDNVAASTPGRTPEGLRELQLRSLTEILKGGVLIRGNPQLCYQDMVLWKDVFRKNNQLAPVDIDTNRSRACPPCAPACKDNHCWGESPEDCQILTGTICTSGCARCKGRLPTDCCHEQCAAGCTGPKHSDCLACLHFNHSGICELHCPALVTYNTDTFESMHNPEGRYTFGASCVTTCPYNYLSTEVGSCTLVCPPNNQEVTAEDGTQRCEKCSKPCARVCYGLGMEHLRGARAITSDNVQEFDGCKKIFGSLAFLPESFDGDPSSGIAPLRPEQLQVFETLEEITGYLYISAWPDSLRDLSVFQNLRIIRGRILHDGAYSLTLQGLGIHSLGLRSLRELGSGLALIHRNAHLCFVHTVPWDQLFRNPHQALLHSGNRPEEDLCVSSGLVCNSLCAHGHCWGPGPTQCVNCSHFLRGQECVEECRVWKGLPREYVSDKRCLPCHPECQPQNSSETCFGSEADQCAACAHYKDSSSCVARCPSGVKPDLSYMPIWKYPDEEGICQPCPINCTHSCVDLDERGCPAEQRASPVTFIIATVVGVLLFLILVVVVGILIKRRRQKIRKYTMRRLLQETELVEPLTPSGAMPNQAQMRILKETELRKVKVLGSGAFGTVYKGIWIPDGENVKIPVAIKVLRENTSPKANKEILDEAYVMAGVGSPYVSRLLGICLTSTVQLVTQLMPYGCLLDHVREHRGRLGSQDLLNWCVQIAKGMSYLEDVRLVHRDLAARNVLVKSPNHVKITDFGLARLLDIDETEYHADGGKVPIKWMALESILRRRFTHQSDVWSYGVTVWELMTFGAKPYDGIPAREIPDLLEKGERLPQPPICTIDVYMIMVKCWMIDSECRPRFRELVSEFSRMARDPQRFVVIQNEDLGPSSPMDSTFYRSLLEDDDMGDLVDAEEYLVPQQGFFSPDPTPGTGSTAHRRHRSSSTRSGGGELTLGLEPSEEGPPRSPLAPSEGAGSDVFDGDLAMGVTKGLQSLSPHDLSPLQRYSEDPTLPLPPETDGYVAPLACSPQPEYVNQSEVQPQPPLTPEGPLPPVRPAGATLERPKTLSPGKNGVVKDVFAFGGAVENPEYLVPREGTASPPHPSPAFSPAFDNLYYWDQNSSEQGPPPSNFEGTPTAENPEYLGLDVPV
Procedure: IGF-1 and HER2/neu receptors were partially purified by WGA chromatography of cells overexpressing the protein of interest. To isolate IGF-1R, CHO cells transfected with and overexpressing the human IGF-1R (CHOIGF-1R) were plated in T-150 flasks and grown in DMEM supplemented with 10% fetal calf serum (FCS) until 80% confluent. Cells were harvested in the basal state and solubilized in 50 mM HEPES, 10% glycerol, 1% Triton X-100, 150 mM NaCl, 5 μM EGTA, 0.24 mg/ml aminoethyl-benzensulfonyl fluoride (AEBSF), 10 μg/ml aprotinin, 25 mM benzamidine, 10 μg soybean trypsin inhibitor, and 5 μg/ml leuptin for one hour at 4° C. Samples were centrifuged for 60 minutes at 100,000 g and solubilized extract collected. Rodent HER2/neu receptors were collected from MCNeuA cells crown under identical conditions and processed similarly. […] WGA fractions containing RTK of interest were determined by SDS page and a western blot that employed antibodies against either the IGF-1R or HER2/neu as appropriate.
Autophosphorylation of HER2/neu in WGA preparations enriched in this RTK were determined in the absence of ligand. […] Following transfer to nitrocellulose membrane, receptor autophosphorylation was determined by a western blot that employed a phosphospecific antibody against the pNeu (Tyr1248) diluted 1:1000 in Superblock. […] Values were determined by scanning densitometry.

[5] = tested on: AKT/PKB; test: Akt/PKB phosphorylation in MCF-7/HER2-18 cells (western blot); type: cell-based, human
Procedure: […]. Enzyme linked immunosorbent assays (ELISA) for phosphorylated IGF-1R and HER2 IGF-1R phosphorylation was determined by ELISA as described previously for the insulin receptor [Youngren JF, Goldfine ID and Pratley RE: Decreased muscle insulin receptor kinase con-elates with insulin resistance in normoglycemic Pima Indians. Am J Physiol 273: E276-83, 1997]. Briefly, 10 μg lysate protein were added to triplicate wells in a 96-well plate coated with monoclonal antibody to the IGF-IR (IR3; 2 μg/ml), and incubated for 18 hours at 4° C. Plates were washed five times and then HRP-conjugated anti-phosphotyrosine antibody (0.3 μg/ml), diluted in Solution B (50 mM HEPES, pH 7.6, 150 mM NaCl, 0.05% Tween-20, 1 mM PMSF, 2 mM vanadate and 1 mg/ml bacitracin), was added for two hours at 22° C. Plates were washed five times prior to color development with TMB substrate, which was terminated with 1.0 M H3PO4. Values for receptor phosphorylation were determined by measuring absorbance at 450 nm.
Total protein extracts (10 μg), prepared as described above from cells cultured in the presence or absence of IGF-1 and/or RTK inhibitors, were subjeccted to SDS-PAGE and subsequently transferred to nitrocellulose membranes. […] Membranes were washed again and bound antibodies detected by enhanced chemiluminescence (Pierce). […]

[6] = single injection, mouse, intravenous; cited from earlier work

Chain of EGF receptor (P00533 25-1210): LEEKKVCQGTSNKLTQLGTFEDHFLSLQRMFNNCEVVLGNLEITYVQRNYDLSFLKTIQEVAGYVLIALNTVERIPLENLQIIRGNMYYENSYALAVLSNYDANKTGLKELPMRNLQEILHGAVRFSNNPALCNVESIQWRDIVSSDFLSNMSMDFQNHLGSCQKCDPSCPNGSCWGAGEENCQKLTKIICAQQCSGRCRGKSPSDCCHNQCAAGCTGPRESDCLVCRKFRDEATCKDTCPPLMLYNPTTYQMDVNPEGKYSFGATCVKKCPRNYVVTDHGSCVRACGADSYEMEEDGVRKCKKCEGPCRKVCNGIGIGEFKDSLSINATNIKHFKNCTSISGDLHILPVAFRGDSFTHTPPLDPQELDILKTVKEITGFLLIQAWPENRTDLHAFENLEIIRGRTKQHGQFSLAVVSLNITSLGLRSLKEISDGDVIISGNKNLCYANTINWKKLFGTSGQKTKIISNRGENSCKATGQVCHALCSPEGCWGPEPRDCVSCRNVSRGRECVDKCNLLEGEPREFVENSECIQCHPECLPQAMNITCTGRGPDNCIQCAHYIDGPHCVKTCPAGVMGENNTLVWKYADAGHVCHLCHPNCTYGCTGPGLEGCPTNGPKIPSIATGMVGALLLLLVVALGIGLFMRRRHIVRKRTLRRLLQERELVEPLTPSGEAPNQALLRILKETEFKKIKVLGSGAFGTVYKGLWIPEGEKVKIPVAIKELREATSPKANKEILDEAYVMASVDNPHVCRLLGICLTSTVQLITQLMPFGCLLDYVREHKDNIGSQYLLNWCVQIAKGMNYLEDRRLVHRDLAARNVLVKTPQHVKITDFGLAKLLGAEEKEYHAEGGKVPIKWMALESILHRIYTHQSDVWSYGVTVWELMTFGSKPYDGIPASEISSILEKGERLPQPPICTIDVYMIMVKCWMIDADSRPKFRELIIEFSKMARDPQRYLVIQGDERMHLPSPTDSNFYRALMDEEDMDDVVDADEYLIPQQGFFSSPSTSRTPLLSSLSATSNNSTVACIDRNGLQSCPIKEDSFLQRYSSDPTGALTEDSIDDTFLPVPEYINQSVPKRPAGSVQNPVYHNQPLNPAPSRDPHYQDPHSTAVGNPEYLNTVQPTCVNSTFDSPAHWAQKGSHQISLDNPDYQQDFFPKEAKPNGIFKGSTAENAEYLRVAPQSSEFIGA

CC(Cc1ccc(O)c(O)c1)C(C)Cc1ccc(O)c(O)c1 (stereo not shown) [NDGA, nordihydroguaiaretic acid]
EGF receptor phosphorylation [1]: no affect
IGF-1R autophosphorylation in tumors [2]: reduced
IGF-1 stimulated phosphorylation of Akt and BAD [3]: reduced in a dose-dependent manner
ATP-induced increase in ligand-independent HER2/neu autophosphorylation [4]: abolished
IGF-1 stimulated phosphorylation of AKT/PKB ([5]; 3 nM IGF-1): inhibited
level of phospho-AKT/PKB ([5]; absence of IGF-1): decreased
terminal half-life [6]: 135 min
